Measurements: PubChem BioAssay AID2060890 (Molecular Pharmacology Branch, DTP, NCI, 2025)
Blank lines part the entries; values can stand above or below the compound they belong to.

System: LG0703-F948-PDC complex spheroid viability
Assay: Anticancer human tumor LG0703-F948-PDC patient-derived lung adenocarcinoma cell line growth inhibition [RAS]
Conditions: for IC50: curve of first compound; for viability, T/C: stronger effect = lower value
Procedure, shortened: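 Tumour cells grown as complex spheroids with HUVEC endothelial cells and mesenchymal stem cells, treated with RAS pathway inhibitor combinations. Each agent spans half-log steps from near clinical Cmax, or 10 microM where Cmax is unknown.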
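Further: spheroids exposed to agents for 7 days.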
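Wherever viability, T/C is given: 100% = DMSO vehicle wells.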

IC50 (second compound 0.000949 µM): > 300 nM
IC50 (second compound 0.003 µM): < 0.949 nM
IC50 (second compound 0.00949 µM): < 0.949 nM
IC50 (second compound 0.03 µM): < 0.949 nM
IC50 (second compound 0.0949 µM): < 0.949 nM
IC50 (second compound 0.3 µM): < 0.949 nM
SMILES: CC1(C)CCC(Nc2ncc(C(F)(F)F)c(-c3c[nH]c4c(P(C)(C)=O)c(C#N)ccc34)n2)CN1 (stereo unspecified) + CCn1c(-c2cc(N3CCN(C)CC3)cnc2C(C)OC)c2c3cc(ccc31)-c1csc(n1)CC(NC(=O)C1CC1C)C(=O)N1CCCC(N1)C(=O)OCC(C)(C)C2
viability, T/C (second compound 0.000949 µM, first compound 0.000949 µM): 70.9%
viability, T/C (second compound 0.000949 µM, first compound 0.003 µM): 58.2%
viability, T/C (second compound 0.000949 µM, first compound 0.00949 µM): 54.9%
viability, T/C (second compound 0.000949 µM, first compound 0.03 µM): 64.2%
viability, T/C (second compound 0.000949 µM, first compound 0.0949 µM): 69.8%
viability, T/C (second compound 0.000949 µM, first compound 0.3 µM): 66%
viability, T/C (second compound 0.003 µM, first compound 0.000949 µM): 50.5%
viability, T/C (second compound 0.003 µM, first compound 0.003 µM): 38.7%
viability, T/C (second compound 0.003 µM, first compound 0.00949 µM): 43.2%
viability, T/C (second compound 0.003 µM, first compound 0.03 µM): 39%
viability, T/C (second compound 0.003 µM, first compound 0.0949 µM): 40.1%
viability, T/C (second compound 0.003 µM, first compound 0.3 µM): 44.5%
viability, T/C (second compound 0.00949 µM, first compound 0.000949 µM): 27.3%
viability, T/C (second compound 0.00949 µM, first compound 0.003 µM): 26.4%
viability, T/C (second compound 0.00949 µM, first compound 0.00949 µM): 25.1%
viability, T/C (second compound 0.00949 µM, first compound 0.03 µM): 31.8%
viability, T/C (second compound 0.00949 µM, first compound 0.0949 µM): 26.6%
viability, T/C (second compound 0.00949 µM, first compound 0.3 µM): 33.8%
viability, T/C (second compound 0.03 µM, first compound 0.000949 µM): 15.2%
viability, T/C (second compound 0.03 µM, first compound 0.003 µM): 14.4%
viability, T/C (second compound 0.03 µM, first compound 0.00949 µM): 17.2%
viability, T/C (second compound 0.03 µM, first compound 0.03 µM): 19.4%
viability, T/C (second compound 0.03 µM, first compound 0.0949 µM): 18.3%
viability, T/C (second compound 0.03 µM, first compound 0.3 µM): 20.3%
viability, T/C (second compound 0.0949 µM, first compound 0.000949 µM): 12.3%
viability, T/C (second compound 0.0949 µM, first compound 0.003 µM): 11.9%
viability, T/C (second compound 0.0949 µM, first compound 0.00949 µM): 12.3%
viability, T/C (second compound 0.0949 µM, first compound 0.03 µM): 12.9%
viability, T/C (second compound 0.0949 µM, first compound 0.0949 µM): 14.1%
viability, T/C (second compound 0.0949 µM, first compound 0.3 µM): 9.28%
viability, T/C (second compound 0.3 µM, first compound 0.000949 µM): 9.53%
viability, T/C (second compound 0.3 µM, first compound 0.003 µM): 9.6%
viability, T/C (second compound 0.3 µM, first compound 0.00949 µM): 8.69%
viability, T/C (second compound 0.3 µM, first compound 0.03 µM): 12.3%
viability, T/C (second compound 0.3 µM, first compound 0.0949 µM): 12.7%
viability, T/C (second compound 0.3 µM, first compound 0.3 µM): 10.1%

IC50 (second compound 0.0316 µM): > 10000 nM
IC50 (second compound 0.1 µM): > 10000 nM
IC50 (second compound 0.316 µM): > 10000 nM
IC50 (second compound 1 µM): > 10000 nM
IC50 (second compound 3.16 µM): > 10000 nM
IC50 (second compound 10 µM): > 10000 nM
SMILES: C[C@@H](NC(=O)c1ncnc(N)c1Cl)c1ncc(C(=O)Nc2cc(C(F)(F)F)c(Cl)cn2)s1 + C#Cc1c(F)ccc2cc(O)cc(-c3ncc4c(N5CC6CCC(C5)N6)nc(OCC56CCCN5CC(F)C6)nc4c3F)c12
viability, T/C (second compound 0.0316 µM, first compound 0.0316 µM): 108%
viability, T/C (second compound 0.0316 µM, first compound 0.1 µM): 92.3%
viability, T/C (second compound 0.0316 µM, first compound 0.316 µM): 101%
viability, T/C (second compound 0.0316 µM, first compound 1 µM): 96.7%
viability, T/C (second compound 0.0316 µM, first compound 3.16 µM): 103%
viability, T/C (second compound 0.0316 µM, first compound 10 µM): 104%
viability, T/C (second compound 0.1 µM, first compound 0.0316 µM): 87.5%
viability, T/C (second compound 0.1 µM, first compound 0.1 µM): 87.6%
viability, T/C (second compound 0.1 µM, first compound 0.316 µM): 98.3%
viability, T/C (second compound 0.1 µM, first compound 1 µM): 103%
viability, T/C (second compound 0.1 µM, first compound 3.16 µM): 104%
viability, T/C (second compound 0.1 µM, first compound 10 µM): 98.3%
viability, T/C (second compound 0.316 µM, first compound 0.0316 µM): 85.8%
viability, T/C (second compound 0.316 µM, first compound 0.1 µM): 76.6%
viability, T/C (second compound 0.316 µM, first compound 0.316 µM): 87.3%
viability, T/C (second compound 0.316 µM, first compound 1 µM): 95.4%
viability, T/C (second compound 0.316 µM, first compound 3.16 µM): 109%
viability, T/C (second compound 0.316 µM, first compound 10 µM): 99%
viability, T/C (second compound 1 µM, first compound 0.0316 µM): 86.7%
viability, T/C (second compound 1 µM, first compound 0.1 µM): 74.1%
viability, T/C (second compound 1 µM, first compound 0.316 µM): 64.3%
viability, T/C (second compound 1 µM, first compound 1 µM): 83.5%
viability, T/C (second compound 1 µM, first compound 3.16 µM): 73.5%
viability, T/C (second compound 1 µM, first compound 10 µM): 80%
viability, T/C (second compound 3.16 µM, first compound 0.0316 µM): 63.1%
viability, T/C (second compound 3.16 µM, first compound 0.1 µM): 66.3%
viability, T/C (second compound 3.16 µM, first compound 0.316 µM): 58.6%
viability, T/C (second compound 3.16 µM, first compound 1 µM): 68%
viability, T/C (second compound 3.16 µM, first compound 3.16 µM): 65.4%
viability, T/C (second compound 3.16 µM, first compound 10 µM): 66.6%
viability, T/C (second compound 10 µM, first compound 0.0316 µM): 56.8%
viability, T/C (second compound 10 µM, first compound 0.1 µM): 60.5%
viability, T/C (second compound 10 µM, first compound 0.316 µM): 56.4%
viability, T/C (second compound 10 µM, first compound 1 µM): 56.1%
viability, T/C (second compound 10 µM, first compound 3.16 µM): 70.9%
viability, T/C (second compound 10 µM, first compound 10 µM): 39.5%

IC50 (second compound 0.0316 µM): > 300 nM
IC50 (second compound 0.1 µM): > 300 nM
IC50 (second compound 0.316 µM): > 300 nM
IC50 (second compound 1 µM): > 300 nM
IC50 (second compound 3.16 µM): > 300 nM
IC50 (second compound 10 µM): 3.26 nM
SMILES: CC1(C)CCC(Nc2ncc(C(F)(F)F)c(-c3c[nH]c4c(P(C)(C)=O)c(C#N)ccc34)n2)CN1 (stereo unspecified) + C#Cc1c(F)ccc2cc(O)cc(-c3ncc4c(N5CC6CCC(C5)N6)nc(OCC56CCCN5CC(F)C6)nc4c3F)c12
viability, T/C (second compound 0.0316 µM, first compound 0.000949 µM): 83.1%
viability, T/C (second compound 0.0316 µM, first compound 0.003 µM): 65.2%
viability, T/C (second compound 0.0316 µM, first compound 0.00949 µM): 61.7%
viability, T/C (second compound 0.0316 µM, first compound 0.03 µM): 55.8%
viability, T/C (second compound 0.0316 µM, first compound 0.0949 µM): 63.3%
viability, T/C (second compound 0.0316 µM, first compound 0.3 µM): 67.2%
viability, T/C (second compound 0.1 µM, first compound 0.000949 µM): 93%
viability, T/C (second compound 0.1 µM, first compound 0.003 µM): 80.7%
viability, T/C (second compound 0.1 µM, first compound 0.00949 µM): 63.9%
viability, T/C (second compound 0.1 µM, first compound 0.03 µM): 69.5%
viability, T/C (second compound 0.1 µM, first compound 0.0949 µM): 76.9%
viability, T/C (second compound 0.1 µM, first compound 0.3 µM): 66.3%
viability, T/C (second compound 0.316 µM, first compound 0.000949 µM): 85.6%
viability, T/C (second compound 0.316 µM, first compound 0.003 µM): 58.7%
viability, T/C (second compound 0.316 µM, first compound 0.00949 µM): 62.5%
viability, T/C (second compound 0.316 µM, first compound 0.03 µM): 67.5%
viability, T/C (second compound 0.316 µM, first compound 0.0949 µM): 66%
viability, T/C (second compound 0.316 µM, first compound 0.3 µM): 71.2%
viability, T/C (second compound 1 µM, first compound 0.000949 µM): 62.3%
viability, T/C (second compound 1 µM, first compound 0.003 µM): 76.4%
viability, T/C (second compound 1 µM, first compound 0.00949 µM): 62.5%
viability, T/C (second compound 1 µM, first compound 0.03 µM): 59.5%
viability, T/C (second compound 1 µM, first compound 0.0949 µM): 68.9%
viability, T/C (second compound 1 µM, first compound 0.3 µM): 66.4%
viability, T/C (second compound 3.16 µM, first compound 0.000949 µM): 65.7%
viability, T/C (second compound 3.16 µM, first compound 0.003 µM): 57.5%
viability, T/C (second compound 3.16 µM, first compound 0.00949 µM): 45.1%
viability, T/C (second compound 3.16 µM, first compound 0.03 µM): 53%
viability, T/C (second compound 3.16 µM, first compound 0.0949 µM): 63.9%
viability, T/C (second compound 3.16 µM, first compound 0.3 µM): 54.4%
viability, T/C (second compound 10 µM, first compound 0.000949 µM): 58.3%
viability, T/C (second compound 10 µM, first compound 0.003 µM): 48.9%
viability, T/C (second compound 10 µM, first compound 0.00949 µM): 37.6%
viability, T/C (second compound 10 µM, first compound 0.03 µM): 47.7%
viability, T/C (second compound 10 µM, first compound 0.0949 µM): 50.3%
viability, T/C (second compound 10 µM, first compound 0.3 µM): 44.4%
